Experiments:
KRAS (G12C)::SOS1 = KRAS (G12C)::SOS1 (Homo sapiens (Human), UniProt P01116, C118S/C51S/C80L/G12C); experiment: KRAS::SOS1 AlphaScreen binding assay, KRAS G12C
Outline: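 AlphaScreen measurement of compound disruption of biotinylated, GDP-loaded KRAS 1-169 (10 nM; G12C 7.5 nM) binding to GST-SOS1 564-1049 (5 nM with G12D/G12C, 10 nM otherwise), with 10 μM GDP in PBS/0.1% BSA/0.05% Tween 20. Timing was 30 min compound preincubation, then 60 min with beads at room temperature; top concentration 100 μM, 4-parameter IC50.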

[1] = Plasma protein binding assay (PPB), equilibrium dialysis, 10% FCS in PBS; assay type: in vitro ADME; details: for fraction unbound: bovine, read-out: PPB 10% FCS (% fu)
Outline: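 Test compound (1-10 μmol/L) in 10% FCS in PBS was dialysed for 3-5 h at 37° C versus PBS ± dextran across a semipermeable membrane. LC-MS of both compartments after protein precipitation gave Cserum and Cbuffer, from which the unbound fraction fu was derived.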

[2] = Caco-2 assay (permeability PappAB, PappBA, efflux ratio); assay type: in vitro ADME; details: human, Caco-2, 10 μM test compound, pH 7.4; for efflux ratio at 90 min, 10 μM: efflux ratio PappBA/PappAB, read-out: Caco ER; for Papp A→B at 90 min, 10 μM: apical to basolateral
Outline: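 Bidirectional permeability (apical-to-basolateral and reverse) through polarized Caco-2 monolayers, BSA 0.25% on each side, 37 °C. Donor and receiver sampled at 0-90 min after 25-30 min preincubation, analysed by HPLC/MS/MS. Apparent permeabilities derived from transfer rate normalised to area and t=0 donor concentration; ER taken as PappBA over PappAB.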

Chain of KRAS (G12C)::SOS1 (P01116 other isoform, or with tags, fused parts or gaps G12C/C51S/C80L/C118S): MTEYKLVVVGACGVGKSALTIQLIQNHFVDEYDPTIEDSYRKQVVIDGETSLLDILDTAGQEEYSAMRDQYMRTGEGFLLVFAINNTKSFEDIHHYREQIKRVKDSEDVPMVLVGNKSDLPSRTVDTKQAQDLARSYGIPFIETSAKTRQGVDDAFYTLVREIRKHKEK

IC50 (KRAS (G12C)::SOS1) [nM] | fraction unbound [1] | efflux ratio at 90 min, 10 μM [2] | Papp A→B at 90 min, 10 μM [2] [×10⁻⁶ cm/s] | SMILES | PPB 10% FCS (% fu) ([1]; fraction unbound)
88 | 0.51 | – | – | C[C@H](Oc1nc(-c2onc3c2CCC[C@@]32CCCc3sc(N)c(C#N)c32)cc(N2CCN(C)C3(CC3)C2)n1)[C@@H]1CCCN1C [I-40] | –
2 | 0.32 | 10.4 | – | C[C@H](Oc1cc(-n2ccc(C(=O)N[C@@H]3CCOC3)n2)nc(-c2onc3c2CCC[C@@]32CCCc3sc(N)c(C#N)c32)n1)[C@@H]1CCCN1C [I-56] | –
2 | 0.24 | 6.6 | 3.5 | C[C@H](Oc1cc(-n2ccc(C(N)=O)n2)nc(-c2noc3c2CCC[C@@]32CCCc3sc(N)c(C#N)c32)n1)[C@@H]1CCCN1C [II-21] | –
6 | – | – | – | C[C@H](Oc1cc(N2CCN(C)C3(CC3)C2)nc(-c2onc3c2CCC[C@@]32CCCc3sc(N)c(C#N)c32)n1)[C@@H]1CCCN1C [I-41] | –
1 | 0.03 | – | – | CCOC(=O)c1ccn(-c2cc(O[C@@H](C)[C@@H]3CCCN3C)nc(-c3noc4c3CCC[C@@]43CCCc4sc(N)c(C#N)c43)n2)n1 [II-23] | –
2 | 0.46 | 18.5 | 2 | C[C@H](Oc1cc(-c2ccn(C[C@@H](C)O)n2)nc(-c2onc3c2CCC[C@@]32CCCc3sc(N)c(C#N)c32)n1)[C@@H]1CCCN1C [I-30] | –
3 | 0.71 | 121 | 0.2 | C[C@H](Oc1cc([C@@H]2CCN(C)C2)nc(-c2noc3c2CCC[C@@]32CCCc3sc(N)c(C#N)c32)n1)[C@@H]1CCCN1C [II-37] | –
2 | 0.05 | 0.7 | 11 | C[C@H](Oc1cc(-c2ccn(C)n2)nc(-c2noc3c2CCC[C@@]32CCCc3sc(N)c(C#N)c32)n1)[C@@H]1C[C@@H](F)CN1C [II-27] | –
5 | 0.43 | 21.5 | 1.3 | C[C@H](Oc1cc(N2CC(N(C)C)C2)nc(-c2noc3c2CCC[C@@]32CCCc3sc(N)c(C#N)c32)n1)[C@@H]1CCCN1C [II-7] | –
2 | 0.31 | – | – | C[C@H](Oc1cc(-c2ccn3ncnc3c2)nc(-c2onc3c2CCC[C@@]32CCCc3sc(N)c(C#N)c32)n1)[C@@H]1CCCN1C [I-33] | –
1 | 0.24 | 5.8 | 11 | C[C@H](Oc1cc(-n2ccc(C(=O)NC3(C)COC3)n2)nc(-c2noc3c2CCC[C@@]32CCCc3sc(N)c(C#N)c32)n1)[C@@H]1CCCN1C [II-26] | –
1 | 0.06 | – | – | COCCNC(=O)c1ccn(-c2cc(O[C@@H](C)[C@@H]3[C@@H](OC)CCN3C)nc(-c3onc4c3CCC[C@@]43CCCc4sc(N)c(C#N)c43)n2)n1 [I-55] | –
8 | 0.68 | 52.3 | 0.4 | C[C@H](Oc1cc(N2C[C@H]3CN(C)C[C@H]3C2)nc(-c2noc3c2CCC[C@@]32CCCc3sc(N)c(C#N)c32)n1)[C@@H]1CCCN1C [II-33] | –
3 | 0.54 | – | – | C[C@H](Oc1cc(-n2nccn2)nc(-c2onc3c2CCC[C@@]32CCCc3sc(N)c(C#N)c32)n1)[C@@H]1CCCN1C [I-29] | –
19 | 0.64 | – | – | C[C@H]1CN(C)CCCN1c1cc(N2CCN(C)CC2)nc(-c2noc3c2CCC[C@@]32CCCc3sc(N)c(C#N)c32)n1 [II-30] | –
– | 0.06 | – | – | C[C@H](Oc1cc(-n2ccsc2=O)nc(-c2noc3c2CCC[C@@]32CCCc3sc(N)c(C#N)c32)n1)[C@@H]1CCCN1C [II-135] | –
2 | 0.48 | – | – | C[C@H](Oc1cc(-n2ccc(C(=O)O)n2)nc(-c2noc3c2CCC[C@@]32CCCc3sc(N)c(C#N)c32)n1)[C@@H]1CCCN1C [II-24] | –
1 | 0.04 | – | – | C[C@H](NC(=O)c1ccn(-c2cc(O[C@@H](C)[C@@H]3CCCN3C)nc(-c3onc4c3CCC[C@@]43CCCc4sc(N)c(C#N)c43)n2)n1)c1ccccn1 [I-59] | –
2 | – | – | < 4.8 | C[C@H](Oc1cc(N2CCNC3(COC3)C2)nc(-c2onc3c2CCC[C@@]32CCCc3sc(N)c(C#N)c32)n1)[C@@H]1CCCN1C [I-4] | –
3 | 0.11 | – | – | C[C@H](Oc1cc(N2C[C@H](C)NC3(CC3)C2)nc(-c2noc3c2CCC[C@@]32CCCc3sc(N)c(C#N)c32)n1)[C@@H]1C[C@@H](F)CN1C [II-18] | –
13 | 0.22 | – | – | C[C@H](Oc1cc(N2CCN(C)C3(CCC3)C2)nc(-c2onc3c2CCC[C@@]32CCCc3sc(N)c(C#N)c32)n1)[C@@H]1CCCN1C [I-44] | –

IC50 (KRAS (G12C)::SOS1) [nM] | fraction unbound [1] | efflux ratio at 90 min, 10 μM [2] | Papp A→B at 90 min, 10 μM [2] [×10⁻⁶ cm/s] | SMILES | PPB 10% FCS (% fu) ([1]; fraction unbound)
3 | 0.3 | – | – | Cc1ccc(-c2cc(O[C@@H](C)[C@@H]3CCCN3C)nc(-c3onc4c3CCC[C@@]43CCCc4sc(N)c(C#N)c43)n2)cn1 [I-28] | –
7 | 0.09 | – | – | C[C@H](Oc1cc(-c2cnn(C)n2)nc(-c2noc3c2CCC[C@@]32CCCc3sc(N)c(C#N)c32)n1)[C@@H]1C[C@@H](F)CN1C [II-28] | –
606 | – | – | – | C[C@H]1CN(C)CCCN1c1nc(-c2onc3c2CCC[C@@]32CCCc3sc(N)c(C#N)c32)cc(N2CCN(C)C3(CC3)C2)n1 [I-42] | –
2 | 0.53 | – | – | C[C@H](Oc1cc(Cl)nc(-c2onc3c2CCC[C@@]32CCCc3sc(N)c(C#N)c32)n1)[C@@H]1CCCN1C [I-1] | –
2 | – | – | – | C[C@H](Oc1cc(-n2ccc(C(=O)N[C@H]3CCOC3)n2)nc(-c2onc3c2CCC[C@@]32CCCc3sc(N)c(C#N)c32)n1)[C@@H]1CCCN1C [I-57] | –
6 | 0.17 | – | – | C[C@H](Oc1cc(N2CCN(C)CC2)nc(-c2noc3c2CCC[C@@]32CCCc3sc(N)c(C#N)c32)n1)[C@@H]1CCCN1[C@@H]1CCOC1 [II-39] | –
2 | 0.48 | – | – | C[C@H](Oc1cc(-n2ccnn2)nc(-c2onc3c2CCC[C@@]32CCCc3sc(N)c(C#N)c32)n1)[C@@H]1CCCN1C [I-32] | –
2 | 0.12 | – | – | CO[C@H]1CCN(C)[C@@H]1[C@H](C)Oc1cc(-n2ccc(CC(=O)NC(C)C)n2)nc(-c2onc3c2CCC[C@@]32CCCc3sc(N)c(C#N)c32)n1 [I-48] | –
9 | 0.1 | – | – | C[C@H](Oc1cc(N2CCNC3(CCCC3)C2)nc(-c2noc3c2CCC[C@@]32CCCc3sc(N)c(C#N)c32)n1)[C@@H]1CCCN1C [II-41] | –
37 | – | 28.8 | 0.8 | C[C@H](Oc1nc(-c2noc3c2CCC[C@@]32CCCc3sc(N)c(C#N)c32)cc(N2C[C@H](C)N[C@@H](C)C2)n1)[C@@H]1CCCN1C [II-46] | –
4 | 0.34 | – | – | C[C@H](Oc1cc(N2CC[C@@H](N(C)C)C2)nc(-c2noc3c2CCC[C@@]32CCCc3sc(N)c(C#N)c32)n1)[C@@H]1CCCN1C [II-47] | –
6 | 0.89 | – | – | C[C@H](Oc1cc(N2C[C@@H](N(C)C)[C@@H](F)C2)nc(-c2noc3c2CCC[C@@]32CCCc3sc(N)c(C#N)c32)n1)[C@@H]1CCCN1C [II-11] | –
3 | 0.09 | – | – | C[C@@H]1CN(c2cc(O[C@@H](C)[C@@H]3C[C@@H](F)CN3C)nc(-c3noc4c3CCC[C@@]43CCCc4sc(N)c(C#N)c43)n2)CC2(CC2)N1 [II-17] | –
2 | 0.35 | – | – | C[C@H](Oc1cc(-c2ccc(N)nc2)nc(-c2onc3c2CCC[C@@]32CCCc3sc(N)c(C#N)c32)n1)[C@@H]1CCCN1C [I-25] | –
1 | 0.04 | – | – | C[C@H](Oc1cc(-n2ccc(C(=O)N3CCCC3)n2)nc(-c2noc3c2CCC[C@@]32CCCc3sc(N)c(C#N)c32)n1)[C@@H]1CCCN1C [II-19] | –
2 | 0.57 | – | – | C[C@@H]1CN(c2cc(O[C@@H](C)[C@@H]3CCCN3C)nc(-c3noc4c3CCC[C@@]43CCCc4sc(N)c(C#N)c43)n2)C[C@H](C)N1 [II-36] | –
3 | 0.61 | – | – | C[C@H](Oc1cc(N2CCNCC2)nc(-c2noc3c2CCC[C@@]32CCCc3sc(N)c(C#N)c32)n1)[C@@H]1CCCN1C [II-45] | –
1 | 0.05 | – | – | CO[C@H]1CCN(C)[C@@H]1[C@H](C)Oc1cc(-n2ccc(C(=O)N[C@@H]3CCOC3)n2)nc(-c2onc3c2CCC[C@@]32CCCc3sc(N)c(C#N)c32)n1 [I-53] | –
2 | 0.19 | – | – | Cc1nc(-c2cc(O[C@@H](C)[C@@H]3CCCN3C)nc(-c3onc4c3CCC[C@@]43CCCc4sc(N)c(C#N)c43)n2)cs1 [I-24] | –
1 | 0.09 | – | – | CO[C@H]1CCN(C)[C@@H]1[C@H](C)Oc1cc(-n2ccc(C(=O)N[C@H]3CCOC3)n2)nc(-c2onc3c2CCC[C@@]32CCCc3sc(N)c(C#N)c32)n1 [I-54] | –
1 | 0.1 | – | – | C[C@H](Oc1cc(-n2ccc(C(=O)N(C)C3COC3)n2)nc(-c2onc3c2CCC[C@@]32CCCc3sc(N)c(C#N)c32)n1)[C@@H]1CCCN1C [I-60] | –

SMILES | IC50 (KRAS (G12C)::SOS1) [nM] | fraction unbound [1] | efflux ratio at 90 min, 10 μM [2] | Papp A→B at 90 min, 10 μM [2] [×10⁻⁶ cm/s] | PPB 10% FCS (% fu) ([1]; fraction unbound)
C[C@H](Oc1cc(-c2ccn(C)n2)nc(-c2onc3c2CCC[C@@]32CCCc3sc(N)c(C#N)c32)n1)[C@@H]1CCCN1C [I-21] | 2 | – | – | – | 83

From patent US20240174690A1, “ANNULATED 2-AMINO-3-CYANO THIOPHENES AND DERIVATIVES FOR THE TREATMENT OF CANCER” (BOEHRINGER INGELHEIM INTERNATIONAL GMBH, priority 2021, published 2024)
